Reference: patent US20200384072A1, “THERAPY OF IONIZING RADIATION-INDUCED DISORDERS” (SCK-CEN, priority 2019, published 2020)

Assays:
Cx43 hemichannels = target: T1, Cx43 hemichannels (Homo sapiens, UniProt P17302); assay: Propidium iodide dye uptake assay after irradiation, TICAE cells; format: cell-based
T1 construct: endogenous in cells; host or cells: TICAE and TIME cells (human endothelial cell lines)
Excerpt: Hemichannel opening was also investigated by dye uptake studies making use of the hemichannel permeable fluorescent tracer propidium iodide (PI; MW 668.4 Da). In addition, dextran fluorescein 10 kDa dye was used to assess membrane integrity and occurrence of cell death. PI stains cells with open hemichannels, late apoptotic and necrotic cells, while dextran fluorescein only stains late apoptotic and necrotic cells. Therefore, PI-positive and dextran fluorescein-negative cells are a measure for hemichannel opening while dextran fluorescein-positive cells are a measure for dead cells.
TICAE and TIME cells were seeded in a 24-well plate at a density of 1.25×10^5 and 1.5×10^5 cells/well, respectively, in six biological replicates. Three days later, cells reached 100% confluence. Thirty minutes before irradiation, cells were refreshed with 1 ml medium alone or with medium supplemented with 100 μM TAT-Gap19 (Genosphere Biotechnologies, Paris, France). For fractionated irradiation, cells were refreshed with 1.5 ml medium/well. At different time points after irradiation (1, 6 and 72 h), cells were washed twice with HMS supplemented with 25 mM HEPES (Sigma-Aldrich Co. LCC, Diegem, Belgium) (HBSS-HEPES). Afterwards, the cells were incubated with 1 mM PI and 200 μM dextran fluorescein (10 kDa) (Life Technologies, Merelbeke, Belgium), dissolved in HBSS-HEPES for 5 minutes followed by 5 times washing with MSS-HEPES. Finally, the fluorescence was measured using an IncuCyte ZOOM® system (Essen BioScience, Ann Arbor, Mich., USA) by using different channels (TRITC, FITC and phase contrast) and a 10× objective Fluorescence signal was normalized to cell number.

TICAE cells = assay: IGFBP-7 and GDF-15 multiplex-based assays, TICAE cells; format: cell-based, human; details: 7 d p.i.
Protocol: TICAE and TIME cells were seeded in a 6-well plate at a density of 2.5×10^5 cells/well in 5 to 6 biological replicates. Two to three days later, cells reached 100% confluence. At 30 minutes before X-ray exposure, cells were refreshed with medium with or without 100 μM TAT-Gap19 (Genosphere Biotechnologies, Paris, France). At 24 h, 48 h, 72 h and 7 d after irradiation, the supernatant was collected. Medium was changed only for the 7 d time point experiment at the fourth day with fresh medium alone or with medium supplemented with 100 μM TAT-Gap19. For the simultaneous detection of multiple cytokines in the supernatants, the Magnetic Luminex® Assay (R&D systems, Minneapolis, […]) was used following manufacturer's instructions. Briefly, supernatants, standards and microparticles were incubated into a 96-well plate which was pre-coated with cytokine-specific antibodies. The immobilized antibodies were able to bind the cytokines of interest after 2 h incubation, then the plate was washed and incubation with a biotinylated antibody cocktail specific to the cytokines of interest was performed for 1 h. A second wash was performed to remove the unbound biotinylated antibodies. Further, a streptavidin-phycoerythrin conjugate was added to each well to bind to the biotinylated antibodies. After a final wash, the microparticles were resuspended in buffer and read using the Luminex® MAGPIX Analyzer (R&D systems, Minneapolis, […]).

RBE4 cells [1] = assay: γ-H2AX counts after local 3×3 mm X-ray irradiation (irradiated and bystander zones), RBE4 cells; format: cell-based, rat; details: 1 Gy, 3 h post-irradiation, Cbx 50 μM, Gap26 161 μM, TAT-Gap19 200 μM, Xestospongin C 5 μM
Protocol: A defined area of the cell culture dishes were exposed to X-rays (1Gy or 20 Gy) by using a small animal radiation research platform (SARRP, Xstrahl, 220 kV, 13 mA), making use of a 3×3 mm collimator. Whole dish irradiation was done using a 10×10 cm broad-beam collimator, while localized Irradiation was performed with a 3×3 mm collimator. A Gafchromic RTQA2 film, with a sensitivity of 0.02 Gy, was placed underneath the cell dishes in order to delineate the irradiated zone.
Cells were fixed for 25 min with 4% formaldehyde (VWR) and blocked for 30 min with blocking buffer (5% normal goat serum, 1% bovine serum albumin (BSA), 0.2% Triton X-100 in PBS D+). Overnight incubation with primary antibody (1/500 anti-γ-H2AX in dilution buffer, 1/10 blocking buffer in PBS D+) was followed by a 1 h incubation with 1/400 XX-biotin-goat-anti-mouse antibody in dilution buffer, followed by a 1 h incubation with 1/400 streptavidin-alexa488 in PBS D+. Nuclei were stained with 1 μg/mL DAPI in PBS D+ for 10 min and cells were kept in PBS D+ supplemented with NaN3 at 4° C. All steps except the overnight incubation which was carried out at 4° C., were carried out at room temperature and cell cultures were rinsed thoroughly with PBS D+ between all incubation steps. Imaging was performed with an automated BD Pathway 435 imaging system (10× objective, 10×10 montage resulting in an overall image size of 8.5×6.5 mm). We then quantified the number of γ-H2AX-foci positive nuclei in the directly irradiated and bystander areas and expressed the count as a percentage relative to the number of nuclei and subtracted the percentage of background γ-H2AX signal in non-irradiated paired control cultures for each experiment. For counting γ-H2AX foci, images were thresholded to remove background pixel noise below the foci level. Where applicable, results were normalized against vehicle (bar charts with a 100% vehicle bar without statistical variability or a horizontal line).

RBE4 cells [2] = assay: Irradiation-induced ATP release, RBE4 cells; format: cell-based, rat; details: broad-beam 1 Gy, 5 min post-irradiation, BAPTA-AM 10 μM, NALC 1 mM, c-PTIO 100 μM
Protocol: ATP was measured using a luciferin-luciferase assay kit (Sigma-Aldrich) in combination with a luminometer plate reader (Victor3 1420 multi label counter; Perkin Elmer, Zaventem, Belgium).
Extracellular ATP measurements were initially carried out at different time-points post-irradiation, the effect of blockers on ATP release was tested at the 5 min post-irradiation time-point (time of maximum ATP release).

T1 sequence (P17302 whole entry): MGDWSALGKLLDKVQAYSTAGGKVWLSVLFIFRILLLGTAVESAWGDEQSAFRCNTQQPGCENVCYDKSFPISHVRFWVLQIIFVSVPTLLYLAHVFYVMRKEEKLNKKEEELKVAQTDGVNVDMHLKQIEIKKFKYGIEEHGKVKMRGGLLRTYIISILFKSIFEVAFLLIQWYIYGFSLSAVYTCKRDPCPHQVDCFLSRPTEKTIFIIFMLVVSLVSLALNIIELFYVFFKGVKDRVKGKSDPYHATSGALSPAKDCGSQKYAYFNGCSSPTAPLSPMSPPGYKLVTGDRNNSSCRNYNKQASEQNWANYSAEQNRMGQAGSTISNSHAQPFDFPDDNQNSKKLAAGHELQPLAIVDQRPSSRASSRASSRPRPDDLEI

## TAT-Gap19: connexin mimetic peptide, amino-acids 128-136 of the CL of Cx43 (SEQ ID NO: 2), Gap19 linked to TAT sequence; Cx43 hemichannel inhibitor (YGRKKRRQRRRKQIEIKKFK)
Cx43 hemichannels; 100 μM TAT-Gap19, fractionated 5 Gy, 72 h
  radiation-induced PI dye uptake: had no effect
Cx43 hemichannels; 100 μM TAT-Gap19, single 5 Gy, 1 h p.i.
  radiation-induced PI dye uptake: Significant inhibition
Cx43 hemichannels; 100 μM TAT-Gap19, single irradiation, 72 h p.i.
  radiation-induced PI dye uptake: most clear and significant at the 72 h p.i. time point
TICAE cells; 100 μM TAT-Gap19, 0, 0.1 and 5 Gy
  GDF-15: significantly inhibited these responses in all treated conditions
TICAE cells; 100 μM TAT-Gap19, 0.1 Gy
  IGFBP-7: acted in a significantly inhibitory way
TICAE cells; 100 μM TAT-Gap19, 5 Gy
  IGFBP-7 (radiation-induced increase): not inhibited
RBE4 cells [1]
  γ-H2AX counts in the bystander zone (normalized to vehicle): significantly inhibited
  γ-H2AX counts in the irradiated zone (normalized to vehicle): significantly inhibited
RBE4 cells [2]
  irradiation-induced ATP release: inhibited
